From patent US12448383B2, “Compounds and methods for treatment of viral infections” (priority 2022, dated 2025)

Legend:
[1] = system: Respiratory syncytial virus recombinant with luciferase (RSV-Luc5) in HEp-2 cells; assay: microbe, parasite or virus in culture; type: cell-based; conditions: human respiratory syncytial virus, HEp-2, 72 h, read-out: RSV Hep2 EC50
[2] = system: Respiratory syncytial virus recombinant with luciferase (RSV-Luc5) in Normal Human Bronchial Epithelial (NHBE) cells; assay: microbe, parasite or virus in culture; type: cell-based; conditions: 72 h, read-out: RSV NHBE EC50
[3] = CC50 MT4 cytotoxicity (Cell-Titer Glo); type: cell-based; conditions: human
Experimental: Cytotoxicity of the compounds was determined in uninfected cells using the cell viability reagent in a similar fashion as described before for other cell types (Cihlar et al., Antimicrob Agents Chemother. 2008, 52(2):655-65). HEp-2 (1.5×10^3 cells/well) and MT-4 (2×10^3 cells/well) cells were plated in 384-well plates and incubated with the appropriate medium containing 3-fold serially diluted compound ranging from 15 nM to 100,000 nM. Cells were cultured for 4-5 days at 37° C. Following the incubation, the cells were allowed to equilibrate to 25° C., and cell viability was determined by adding Cell-Titer Glo viability reagent. The mixture was incubated for 10 min, and the luminescence signal was quantified using an Envision plate reader. Untreated cell and cells treated at 2 μM puromycin (Sigma, St. Louis, MO) serve as 100% and 0% cell viability control, respectively. The percent of cell viability was calculated for each tested compound concentration relative to the 0% and 100% controls and the CCso value was determined by non-linear regression as a compound concentration reducing the cell viability by 50%.

[4] = system: SARS Coronavirus 2 recombinant with NanoLuc (SARS-CoV2-NLuc) in A549-hACE2 cells; assay: organism not typed; type: cell-based; conditions: 48 h; read-out: SARS-CoV2 EC50
[5] = system: Caco-2 cells (clone C2BBe1); assay: CACO-2 permeability; type: in vitro ADME; design: unit not given here; conditions: for DM Caco2 A to B: apical to basolateral, donor pH 6.5, receiver pH 7.4; for DM Caco2 B to A: basolateral to apical
Experimental: Pre-plated Caco-2 cells (clone C2BBel) were obtained from Sigma-Aldrich, Inc. (Atlanta, GA). Cell monolayers were grown to confluence on collagen-coated, microporous, polycarbonate membranes in 24-well transwell plates for 21 days. The permeability assay buffer in donor wells was Hanks' balanced salt solution (HBSS) containing 10 mM HEPES and 15 mM glucose at a pH of 6.5 containing 200 μM BNPP. The receiver wells used HBSS buffer containing 10 mM HEPES and 15 mM glucose at a pH of 7.4 and supplemented with 1°% BSA. After an initial equilibration with transport buffer, TEER values were read to test membrane integrity. The experiment was started by the addition of buffers containing test compounds, 200 μl and 1000 μl in the apical and basolateral chamber, respectively. At 0- and 2-hour post dose, 10 μL was sampled from donor compartment and was immediately diluted in 190 μL of 20% methanol. At 1 and 2 hours post dose, 100 μl of solution was taken from the receiver compartments and was immediately diluted in 100 μl of 20% methanol. Removed buffer was replaced with fresh buffer and a correction was applied to all calculations for the removed material. Each compound was tested in 2 separate replicate wells for each condition. All samples were then extracted with 400 μl 100% acetonitrile with internal standard to precipitate protein. Cells were dosed on the apical or basolateral side to determine forward (A to B) and reverse (B to A) permeability. To test for non-specific binding and compound instability, the total amount of drug was quantitated at the end of the experiment and compared to the material present in the original dosing solution as a percent recovery. […] Samples were analyzed by LC-MS/MS.

[6] = GI S9 stability - no PMSF; type: in vitro ADME; conditions: pH 7.4; human intestinal S9, PMSF-free; read-out: GIS9-HUMAN-NoPMSF T1/2
Experimental: Duplicate aliquots of test compound or positive control substrate (GS-7340) were added to S9 stock diluted with 100 mM phosphate buffered saline, pH 7.4, to obtain a protein concentration of 1.0 mg/mL. The S9 metabolic reactions were initiated by the addition of the substrates to the S9 reaction mixture to a final concentration of 2 μM. At 0, 10, 20, 30, 60 and 120 min, […] aliquots of the reaction mixture were transferred to plates containing […] of IS/Q solution. After quenching, the plates were centrifuged at 3000 g for 30 minutes, and 150 μL aliquots of each supernatant were diluted with 150 μL water. Aliquots ([…]) of the diluted supernatant were analyzed on a Thermo Q-Exactive mass spectrometer as described below. GI S9 Stability—No phenylmethylsulfonyl fluoride (PMSF): Similar to the procedure described above, test compounds were incubated at 2 μM with 1 mg/mL PMSF-free Intestinal S9 fractions. Samples are removed at 6 time points over the course of a 120 min experiment and the parent compound disappreance and reference compound A formation is determined by mass spectrometry.
Example K: Liquid Chromatography/Mass Spectroscopy Methods for S9 and Plasma Stability
Quantification of test compounds, Reference Compound A (S9 stability assay nucleoside metabolite), and controls was performed by analyte/internal standard peak area ratio (PAR) values measured on a Thermo Q-Exactive mass spectrometer coupled to a Dionex UltiMate 3000 HPLC with a Leap Technologies HTC PAL autosampler. The column used for analysis of test compounds and Reference Compound A was a Waters Acquity BEH C18 ([…] particle size, 2.1′50 mm). The column used for control (GS-7340) was a Thermo Hypersil GOLD ([…] particle size, 2.1′50 mm). Mobile phase A consisted of 0.1% (v/v) formic acid in water. Mobile phase B consisted of 0.1% (v/v) formic acid in acetonitrile. Elution of analytes was achieved by a series of linear gradients of acetonitrile in water containing 0.1°(v/v) formic acid. The mass spectrometer was calibrated on a weekly basis and mass tolerance of 5 ppm was used.

Plasma stability = type: in vitro ADME; design: unit not given here; conditions: 37° C., 2 μM substrate
Experimental: At 0.05, 0.5, 1, 2, 3 and 4 hr, […] aliquots of the reaction mixture were transferred to plates containing […] of IS/Q quenching solution. After quenching, the plates were centrifuged at 3000 g for 30 minutes, and 150 μL supernatant was diluted with 150 μL water. Aliquots ([…]) of the diluted supernatant were analyzed on a Thermo Q-Exactive mass spectrometer as described below.
Mobile phase A consisted of 0.1% (v/v) formic acid in water. Mobile phase B consisted of 0.1% (v/v) formic acid in acetonitrile. Elution of analytes was achieved by a series of linear gradients of acetonitrile in water containing 0.1°(v/v) formic acid. The mass spectrometer was calibrated on a weekly basis and mass tolerance of 5 ppm was used.

Row | SMILES | EC50 [1] | EC50 [2] | CC50 [3] | EC50 [4] | DM Caco2 A to B [5] | DM Caco2 B to A [5] | half-life at 2 µM [6] | STA Human Plasma 37 (Plasma stability)
1 | CC(C)COC(=O)OC[C@H]1O[C@@](C#N)(c2ccc3c(N)ncnn23)[C@@H]2OC(=O)O[C@@H]21 [Compound 17, ((3aR,4R,6R,6aR)-6-(4-aminopyrrolo[2,1-f][1,2,4]triazin-7-yl)-6-cyano-2-oxotetrahydrofuro[3,4-d][1,3]dioxol-4-yl)methyl isobutyl carbonate] | 0.412 µM | 1.9 µM | > 50 µM | 0.814 µM | – | – | – | –
2 | CC(C)OC(=O)OC[C@H]1O[C@@](C#N)(c2ccc3c(N)ncnn23)[C@@H]2OC(c3ccccc3)O[C@@H]21 (stereo partly drawn) [Compound 100, [(3aR,4R,6R,6aR)-4-(4-aminopyrrolo[2,1-f][1,2,4]triazin-7-yl)-4-cyano-2-phenyl-6,6a-dihydro-3aH-furo[3,4-d][1,3]dioxol-6-yl]methyl isopropyl carbonate] | > 50 µM | 16 µM | > 50 µM | – | 11.73 | 22.71 | – | –
3 | CC(C)OC(=O)OC[C@H]1O[C@@](C#N)(c2ccc3c(N)ncnn23)[C@H](O)[C@@H]1OC(=O)CCCCCCC(=O)O [Compound 130, 8-(((2R,3S,4R,5R)-5-(4-aminopyrrolo[2,1-f][1,2,4]triazin-7-yl)-5-cyano-4-hydroxy-2-(((isopropoxycarbonyl)oxy)methyl)tetrahydrofuran-3-yl)oxy)-8-oxooctanoic acid] | – | 2.96 µM | > 50 µM | 9.04 µM | 0.12 | 2.54 | 95.2 s | 409.28
4 | C=CCCOC(=O)O[C@H]1[C@@H](OC(=O)OCCC=C)[C@](C#N)(c2ccc3c(N)ncnn23)O[C@@H]1COC(=O)OC(C)C [Compound 136, (2R,3R,4R,5R)-2-(4-aminopyrrolo[2,1-f][1,2,4]triazin-7-yl)-2-cyano-5-(((isopropoxycarbonyl)oxy)methyl)tetrahydrofuran-3,4-diyl di(but-3-en-1-yl) bis(carbonate)] | – | 2.03 µM | > 50 µM | 4.7 µM | 4.33 | 5.7 | 60.8 s | 463.08
5 | CCOC(=O)OC[C@H]1O[C@@](C#N)(c2ccc3c(N)ncnn23)[C@@H]2OC(CC)O[C@@H]21 (stereo partly drawn) [Compound 132, ((3aR,4R,6R,6aR)-6-(4-aminopyrrolo[2,1-f][1,2,4]triazin-7-yl)-6-cyano-2-ethyltetrahydrofuro[3,4-d][1,3]dioxol-4-yl)methyl ethyl carbonate] | – | > 50 µM | > 50 µM | > 50 µM | 12.34 | 13.86 | 37.4 s | 12.304
6 | CC1(OC(=O)OC[C@H]2O[C@@](C#N)(c3ccc4c(N)ncnn34)[C@H](O)[C@@H]2O)CCCCCC1 [Compound 55, ((2R,3S,4R,5R)-5-(4-aminopyrrolo[2,1-f][1,2,4]triazin-7-yl)-5-cyano-3,4-dihydroxytetrahydrofuran-2-yl)methyl (1-methylcycloheptyl) carbonate] | – | 1.34 µM | > 50 µM | 2.9 µM | 0.38 | 1.89 | 35.8 s | 75.665
7 | N#C[C@@]1(c2ccc3c(N)ncnn23)O[C@H](COC(=O)OC2CCC2)[C@@H](O)[C@H]1O [Compound 37, ((2R,3S,4R,5R)-5-(4-aminopyrrolo[2,1-f][1,2,4]triazin-7-yl)-5-cyano-3,4-dihydroxytetrahydrofuran-2-yl)methyl cyclobutyl carbonate] | – | 4.75 µM | > 50 µM | 3.15 µM | 0.5 | 7.54 | 35.3 s | 53
8 | CC(C)[C@@H]1CC[C@@H](C)C[C@H]1OC(=O)OC[C@H]1O[C@@](C#N)(c2ccc3c(N)ncnn23)[C@H](O)[C@@H]1O [Compound 83, ((2R,3S,4R,5R)-5-(4-aminopyrrolo[2,1-f][1,2,4]triazin-7-yl)-5-cyano-3,4-dihydroxytetrahydrofuran-2-yl)methyl ((1R,2S,5R)-2-isopropyl-5-methylcyclohexyl) carbonate] | – | 2.32 µM | 21 µM | 24.5 µM | 5.3 | 25.42 | 726 s | 1584
9 | Cc1ccc(C(C)C)c(OC(=O)OC[C@H]2O[C@@](C#N)(c3ccc4c(N)ncnn34)[C@H](O)[C@@H]2O)c1 [Compound 82, ((2R,3S,4R,5R)-5-(4-aminopyrrolo[2,1-f][1,2,4]triazin-7-yl)-5-cyano-3,4-dihydroxytetrahydrofuran-2-yl)methyl (2-isopropyl-5-methylphenyl) carbonate] | – | 2.41 µM | > 50 µM | 1.55 µM | 2.73 | 20.67 | 120 s | 193.22
10 | COC(=O)O[C@H]1[C@@H](OC(=O)OC)[C@](C#N)(c2ccc3c(N)ncnn23)O[C@@H]1COC(=O)OC(C)C [Compound 135, (2R,3R,4R,5R)-2-(4-aminopyrrolo[2,1-f][1,2,4]triazin-7-yl)-2-cyano-5-(((isopropoxycarbonyl)oxy)methyl)tetrahydrofuran-3,4-diyl dimethyl bis(carbonate)] | – | > 50 µM | > 50 µM | > 50 µM | 3.87 | 18.05 | 39.2 s | 96.462
